In ChEMBL document CHEMBL4665719, “Development of SKI-349, a dual-targeted inhibitor of sphingosine kinase and microtubule polymerization” (Bioorg Med Chem Lett, 2020):
Active and inactive are the calls of the source. No cut-off for these calls is given here.

Assays:
[1] = molecular target: Tyrosine-protein kinase JAK1 (Homo sapiens) (UniProt P23458); test: Inhibition of wild-type human partial length JAK1 JH2 pseudokinase domain (R537 to D855 residues) expressed in mammalian expression system assessed as residual activity at 1 uM by Kinomescan method relative to control
Tyrosine-protein kinase JAK1 (Homo sapiens), sequence (P23458 whole entry, the tested form may be a part): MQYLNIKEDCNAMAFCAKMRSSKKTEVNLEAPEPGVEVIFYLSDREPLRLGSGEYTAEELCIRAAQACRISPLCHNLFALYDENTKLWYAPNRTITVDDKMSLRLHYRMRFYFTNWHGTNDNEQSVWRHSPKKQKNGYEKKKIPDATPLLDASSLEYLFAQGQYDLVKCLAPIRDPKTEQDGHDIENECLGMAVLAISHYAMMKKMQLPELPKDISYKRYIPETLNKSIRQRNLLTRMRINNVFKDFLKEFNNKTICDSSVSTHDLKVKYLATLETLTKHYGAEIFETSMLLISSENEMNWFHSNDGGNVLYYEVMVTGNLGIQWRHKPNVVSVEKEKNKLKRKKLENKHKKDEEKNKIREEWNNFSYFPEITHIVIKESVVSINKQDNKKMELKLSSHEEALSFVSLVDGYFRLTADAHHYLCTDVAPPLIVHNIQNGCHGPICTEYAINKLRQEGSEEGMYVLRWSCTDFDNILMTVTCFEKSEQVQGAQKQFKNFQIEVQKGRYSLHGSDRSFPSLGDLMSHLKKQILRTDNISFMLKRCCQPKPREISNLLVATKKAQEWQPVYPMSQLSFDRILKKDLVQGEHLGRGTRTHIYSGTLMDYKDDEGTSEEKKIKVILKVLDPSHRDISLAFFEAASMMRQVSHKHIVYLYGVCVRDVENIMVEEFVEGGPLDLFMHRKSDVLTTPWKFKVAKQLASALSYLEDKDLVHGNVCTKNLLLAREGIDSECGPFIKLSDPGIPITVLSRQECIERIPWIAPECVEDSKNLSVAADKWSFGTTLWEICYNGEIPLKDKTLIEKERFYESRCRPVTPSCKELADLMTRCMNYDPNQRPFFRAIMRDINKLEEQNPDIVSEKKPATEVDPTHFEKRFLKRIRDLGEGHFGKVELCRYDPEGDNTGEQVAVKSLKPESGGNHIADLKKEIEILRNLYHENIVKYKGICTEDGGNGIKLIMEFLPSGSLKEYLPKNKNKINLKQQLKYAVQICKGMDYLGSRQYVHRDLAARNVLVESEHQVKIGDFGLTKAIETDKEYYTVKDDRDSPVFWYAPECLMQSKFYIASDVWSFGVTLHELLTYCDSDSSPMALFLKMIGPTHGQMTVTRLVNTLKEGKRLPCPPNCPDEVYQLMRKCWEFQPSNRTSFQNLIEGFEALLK

[2] = molecular target: Cyclin-dependent kinase 1 (Homo sapiens) (UniProt P06493); test: Activation of CDK1 in human HL-60 cells assessed as induction of Bcl2 phosphorylation at Ser70 residue at 300 nM after 24 hrs by Western blot analysis; format: cell-based; conditions: filed as activator
Cyclin-dependent kinase 1 (Homo sapiens), sequence (P06493 whole entry, looked up, the tested form may be a part): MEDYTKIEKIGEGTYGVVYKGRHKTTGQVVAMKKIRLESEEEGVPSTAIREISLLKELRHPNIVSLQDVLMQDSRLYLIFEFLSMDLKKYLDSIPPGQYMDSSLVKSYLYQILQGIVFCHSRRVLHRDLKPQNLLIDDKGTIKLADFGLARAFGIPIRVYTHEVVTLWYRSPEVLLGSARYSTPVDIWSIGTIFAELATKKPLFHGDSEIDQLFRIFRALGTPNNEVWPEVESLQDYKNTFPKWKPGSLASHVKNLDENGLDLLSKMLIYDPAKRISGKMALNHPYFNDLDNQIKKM

Sphingosine kinase 2 = molecular target: T1, Sphingosine kinase 2 (Homo sapiens, UniProt Q9NRA0); test: Binding affinity to SphK2 in HEK293 cells assessed as direct target engagement incubated for 24 hrs followed by thermal denaturation at 61 degreeC by ITDRF-CETSA assay; format: cell-based
T1 sequence (Q9NRA0 whole entry): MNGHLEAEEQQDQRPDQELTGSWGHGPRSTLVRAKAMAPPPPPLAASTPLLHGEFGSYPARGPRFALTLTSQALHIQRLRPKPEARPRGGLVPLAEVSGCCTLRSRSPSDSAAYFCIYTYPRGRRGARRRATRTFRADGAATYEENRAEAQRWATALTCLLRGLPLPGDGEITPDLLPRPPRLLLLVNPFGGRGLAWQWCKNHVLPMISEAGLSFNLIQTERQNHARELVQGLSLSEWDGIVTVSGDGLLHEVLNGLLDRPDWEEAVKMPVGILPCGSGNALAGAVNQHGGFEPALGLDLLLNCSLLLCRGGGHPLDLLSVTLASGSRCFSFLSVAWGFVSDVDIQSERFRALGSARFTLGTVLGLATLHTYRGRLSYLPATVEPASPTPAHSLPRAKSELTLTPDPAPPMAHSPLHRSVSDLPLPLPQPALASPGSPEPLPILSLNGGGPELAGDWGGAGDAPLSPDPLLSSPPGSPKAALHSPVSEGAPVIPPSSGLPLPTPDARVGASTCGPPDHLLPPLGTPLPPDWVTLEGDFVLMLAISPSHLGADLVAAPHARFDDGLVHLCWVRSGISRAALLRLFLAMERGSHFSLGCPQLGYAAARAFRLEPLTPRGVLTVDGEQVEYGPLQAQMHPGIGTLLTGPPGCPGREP

[3] = molecular target: Cyclin-dependent kinase 1 (Homo sapiens) (UniProt P06493); test: Activation of CDK1 in human HL-60 cells assessed as activation of caspase 7 at 300 nM after 24 hrs in presence of Ro-3306 by Western blot analysis; format: cell-based
[4] = Toxicity in sub-lethal irradiated C57BL/6J mouse xenografted with […] MLL-AF9 cells assessed as RBC level at 5 mg/kg measured after 2 weeks (reference value: 9.8 +/- 0.3 10^6/ml); format: organism-based; conditions: in vivo, 336 h
[5] = Toxicity in sub-lethal irradiated C57BL/6J mouse xenografted with […] MLL-AF9 cells assessed as platelet level at 5 mg/kg measured after 2 weeks (reference value: 687 +/- 53 10^3/ml); format: organism-based; conditions: in vivo, 336 h
[6] = Toxicity in sub-lethal irradiated C57BL/6J mouse xenografted with […] MLL-AF9 cells assessed as RBC level at 1 mg/kg measured after 2 weeks (reference value: 9.8 +/- 0.3 10^6/ml); format: organism-based; conditions: in vivo, 336 h
[7] = molecular target: Cyclin-dependent kinase 1 (Homo sapiens) (UniProt P06493); test: Activation of CDK1 in human HL-60 cells assessed as induction of Bcl2 phosphorylation at Ser70 residue at 300 nM after 24 hrs in presence of Ro-3306 by Western blot analysis; format: cell-based
[8] = molecular target: T2, Sphingosine kinase 2 (Homo sapiens) (UniProt Q9NRA0); test: Binding affinity to SphK2 in HEK293 cells assessed as induction of thermal stabilization at 1 uM and 48.8 to 68.2 degreeC by CETSA-based Western blot analysis; format: cell-based
T2 sequence (whole entry): T1 sequence (Q9NRA0 whole entry)

HL-60 = test: Cytotoxicity against human HL-60 cells assessed as reduction in cell viability after 48 hrs by MTT assay; format: functional, cell-based; conditions: HL-60, 48 h
[9] = molecular target: Glycogen synthase kinase-3 beta (Homo sapiens) (UniProt P49841); test: Inhibition of wild-type human full length GSK3B (M1 to T433 residues) expressed in mammalian expression system assessed as residual activity at 1 uM by Kinomescan method relative to control
Glycogen synthase kinase-3 beta (Homo sapiens), sequence (P49841 whole entry, looked up, the tested form may be a part): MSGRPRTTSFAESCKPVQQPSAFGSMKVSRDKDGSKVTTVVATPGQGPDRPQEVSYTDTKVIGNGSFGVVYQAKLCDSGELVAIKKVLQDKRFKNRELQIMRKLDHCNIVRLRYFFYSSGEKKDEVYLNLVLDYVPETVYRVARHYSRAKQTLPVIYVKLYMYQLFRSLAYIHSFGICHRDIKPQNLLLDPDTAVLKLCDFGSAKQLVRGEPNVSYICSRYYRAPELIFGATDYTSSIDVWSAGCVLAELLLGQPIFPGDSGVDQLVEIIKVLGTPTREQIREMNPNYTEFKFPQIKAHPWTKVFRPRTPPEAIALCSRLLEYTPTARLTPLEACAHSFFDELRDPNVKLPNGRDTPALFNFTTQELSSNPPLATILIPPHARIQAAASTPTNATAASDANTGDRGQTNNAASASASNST

[10] = molecular target: T3, Sphingosine kinase 1/2 (Homo sapiens) (UniProt Q9NRA0+Q9NYA1); test: Inhibition of SPHK1/SPHK2 in human HL-60 cells assessed as C18:0 ceramide level assessed per 10^6 cells at 500 nM after 24 hrs by LC-ESI/MS analysis (reference value: 1.6 +/- 0.2 pmol); format: cell-based
T3 sequence (Q9NYA1 whole entry, looked up, one chain of several): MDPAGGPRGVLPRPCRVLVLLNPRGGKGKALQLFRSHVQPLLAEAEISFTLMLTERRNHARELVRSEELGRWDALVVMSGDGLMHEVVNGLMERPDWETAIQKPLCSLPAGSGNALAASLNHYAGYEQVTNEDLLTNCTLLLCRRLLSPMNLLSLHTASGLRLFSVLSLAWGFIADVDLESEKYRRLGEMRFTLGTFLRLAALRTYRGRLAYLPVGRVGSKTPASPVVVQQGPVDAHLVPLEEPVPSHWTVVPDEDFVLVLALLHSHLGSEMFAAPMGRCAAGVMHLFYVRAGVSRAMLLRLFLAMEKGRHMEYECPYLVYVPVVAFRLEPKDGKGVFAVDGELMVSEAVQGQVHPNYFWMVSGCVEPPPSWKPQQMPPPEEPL

[11] = molecular target: T3, Sphingosine kinase 1/2 (Homo sapiens); test: Inhibition of SPHK1/SPHK2 in human HL-60 cells assessed as sphingosine-1-phosphate level assessed per 10^6 cells at 500 nM after 24 hrs by LC-ESI/MS analysis (reference value: 3.1 +/- 0.3 pmol); format: cell-based
[12] = molecular target: Cyclin-dependent kinase 1 (Homo sapiens) (UniProt P06493); test: Activation of CDK1 in human HL60/VCR cells assessed as activation of caspase 7 at 300 nM after 24 hrs in presence of Ro-3306 by Western blot analysis; format: cell-based
Tubulin (Homo sapiens) = Tubulin (Homo sapiens) (UniProt P68371+Q9H4B7+P0DPH7+P68366+Q13509+Q71U36+P04350+Q3ZCM7+P07437+P68363+Q9BQE3+Q6PEY2+Q13885+Q9BVA1+Q9BUF5); test: Inhibition of tubulin polymerization in human MOLM-13 cells assessed as disruption of microtubule network at 500 nM after 18 hrs by FITC-staining based flow cytometry analysis; format: cell-based
[13] = Toxicity in sub-lethal irradiated C57BL/6J mouse xenografted with […] MLL-AF9 cells assessed as platelet level at 1 mg/kg measured after 2 weeks (reference value: 687 +/- 53 10^3/ml); format: organism-based; conditions: in vivo, 336 h
[14] = Effect on hematopoiesis in sub-lethal irradiated C57BL/6J mouse xenografted with […] MLL-AF9 cells assessed as CD45.1+/CD34 cells in spleen at 2.5 mg/kg measured after 6 weeks by flow cytometry analysis (reference value: 90 %); format: ADME, organism-based; conditions: in vivo, 1008 h
[15] = Effect on hematopoiesis in sub-lethal irradiated C57BL/6J mouse xenografted with […] MLL-AF9 cells assessed as CD45.1+/CD34 cells in bone marrow at 2.5 mg/kg measured after 6 weeks by flow cytometry analysis (reference value: 93 %); format: ADME, organism-based; conditions: in vivo, 1008 h
[16] = molecular target: Cyclin-dependent kinase 1 (Homo sapiens) (UniProt P06493); test: Activation of CDK1 in human HL-60 cells assessed as activation of caspase 7 at 300 nM after 24 hrs by Western blot analysis; format: cell-based; conditions: filed as activator
[17] = molecular target: Non-receptor tyrosine-protein kinase TYK2 (Homo sapiens) (UniProt P29597); test: Inhibition of wild-type human partial length TYK2 JH2 pseudokinase domain (G556 to D888 residues) expressed in mammalian expression system assessed as residual activity at 1 uM by Kinomescan method relative to control
Non-receptor tyrosine-protein kinase TYK2 (Homo sapiens), sequence (P29597 whole entry, the tested form may be a part): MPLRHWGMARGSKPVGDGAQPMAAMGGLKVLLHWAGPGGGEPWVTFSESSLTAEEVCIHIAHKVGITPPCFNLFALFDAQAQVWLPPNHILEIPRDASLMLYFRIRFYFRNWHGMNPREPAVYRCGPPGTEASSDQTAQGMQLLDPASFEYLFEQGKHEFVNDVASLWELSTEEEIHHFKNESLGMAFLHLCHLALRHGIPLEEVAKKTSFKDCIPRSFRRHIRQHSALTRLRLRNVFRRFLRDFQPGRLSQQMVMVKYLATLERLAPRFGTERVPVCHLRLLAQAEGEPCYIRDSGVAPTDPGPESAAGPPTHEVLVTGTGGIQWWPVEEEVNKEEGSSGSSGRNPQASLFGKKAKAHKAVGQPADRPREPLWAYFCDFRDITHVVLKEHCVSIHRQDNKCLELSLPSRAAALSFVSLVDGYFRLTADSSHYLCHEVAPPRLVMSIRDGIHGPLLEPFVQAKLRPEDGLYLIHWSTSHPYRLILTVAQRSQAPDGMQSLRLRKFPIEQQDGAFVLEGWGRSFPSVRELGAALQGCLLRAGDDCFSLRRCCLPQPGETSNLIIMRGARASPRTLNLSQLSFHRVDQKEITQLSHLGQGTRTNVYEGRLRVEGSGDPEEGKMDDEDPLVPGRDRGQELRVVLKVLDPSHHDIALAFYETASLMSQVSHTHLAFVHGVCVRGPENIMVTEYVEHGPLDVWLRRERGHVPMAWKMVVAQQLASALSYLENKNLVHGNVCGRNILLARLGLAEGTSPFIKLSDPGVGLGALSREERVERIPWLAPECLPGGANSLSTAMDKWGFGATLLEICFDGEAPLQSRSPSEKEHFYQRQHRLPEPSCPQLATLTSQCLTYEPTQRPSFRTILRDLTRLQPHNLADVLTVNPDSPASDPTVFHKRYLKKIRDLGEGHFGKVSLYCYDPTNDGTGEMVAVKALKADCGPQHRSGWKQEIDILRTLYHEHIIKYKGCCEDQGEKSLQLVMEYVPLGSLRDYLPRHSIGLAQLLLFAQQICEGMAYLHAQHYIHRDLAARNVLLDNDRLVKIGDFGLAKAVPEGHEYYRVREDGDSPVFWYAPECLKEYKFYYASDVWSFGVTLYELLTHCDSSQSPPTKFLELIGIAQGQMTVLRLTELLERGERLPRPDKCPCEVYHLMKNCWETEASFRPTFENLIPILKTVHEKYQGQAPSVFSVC

Q: What does the source list for `COc1ccc(Nc2nc(N)c(C(=O)c3ccc(OC)c(OC)c3)s2)cc1`?
A: Activity [1]: 5.4%; Activity [2]: Active; IC50 (Sphingosine kinase 2): 60 nM; Activity [3]: inactive; Activity [4]: 9 10^6/ml; Activity [5]: 1089 10^3/ml; Activity [6]: 9.2 10^6/ml; Activity [7]: inactive; Activity [8]: Active; IC50 (HL-60): 22 nM; Activity [9]: 27%; Activity [10]: 4.7 pmol; Activity [11]: 2.3 pmol; Activity [12]: inactive; inhibition (Tubulin (Homo sapiens)): Active; Activity [13]: 1193 10^3/ml; Activity [14]: 6%; Activity [15]: 7%; Activity [16]: Active; Activity [17]: 14%
